Measurements taken from US20130158072A1, “KAPPA OPIOID RECEPTOR BINDING LIGANDS” (Research Triangle Institute, priority 2010, published 2013).
Values joined by “and” are separate entries in the source; they are usually repeats but may differ in a detail not shown here. Identical values can stand only once. Counter-ions that a name gives are not always drawn.

Experiments:
[1] = molecular target: T1, cloned human δ-opioid receptor (Homo sapiens, UniProt P41143); assay: Inhibition of DPDPE-stimulated [35S]GTPγS binding; assay type: biochemical; conditions: for δ, DPDPE Ke: antagonism of DPDPE-stimulated [35S]GTPγS binding, CHO cells, means ± SE, at least three experiments
T1 construct: expressed in transfected cells; host or cells: CHO cells
Procedure: (§1) Test compound assay concentrations ranged from 1-5000 nM, depending on their activity. The Ke values were calculated using the formula: Ke=[L]/DR−1, where [L] is the concentration of test compound and DR is the ratio of agonist EC50 value in the presence or absence of test compound, respectively.

[2] = molecular target: T2, cloned human μ-opioid receptor (Homo sapiens, UniProt P35372); assay: Inhibition of DAMGO-stimulated [35S]GTPγS binding; assay type: biochemical; conditions: for potency at μ receptors compared to 3: compared with 3; for μ, DAMGO Ke: antagonism of DAMGO-stimulated [35S]GTPγS binding, CHO cells, means ± SE, at least three experiments
T2 construct: expressed in transfected cells; host or cells: CHO cells
Procedure: as §1

[3] = molecular target: cloned human κ-opioid receptor (Homo sapiens, UniProt P41145); assay: Inhibition of U69,593-stimulated [35S]GTPγS binding; conditions: for change in potency on N-methylation at the tetrahydroisoquinoline nitrogen: 8c: at all receptor subtypes, others: at κ receptors; for δ/κ / μ/κ: ratio of Ke values; for δ/κ: κ selectivity relative to δ; for μ/κ: κ selectivity relative to μ; for κ, U69,593 Ke: antagonism of U69,593-stimulated [35S]GTPγS binding, CHO cells, means ± SE, at least three experiments
Chain of cloned human κ-opioid receptor (P41145 whole entry): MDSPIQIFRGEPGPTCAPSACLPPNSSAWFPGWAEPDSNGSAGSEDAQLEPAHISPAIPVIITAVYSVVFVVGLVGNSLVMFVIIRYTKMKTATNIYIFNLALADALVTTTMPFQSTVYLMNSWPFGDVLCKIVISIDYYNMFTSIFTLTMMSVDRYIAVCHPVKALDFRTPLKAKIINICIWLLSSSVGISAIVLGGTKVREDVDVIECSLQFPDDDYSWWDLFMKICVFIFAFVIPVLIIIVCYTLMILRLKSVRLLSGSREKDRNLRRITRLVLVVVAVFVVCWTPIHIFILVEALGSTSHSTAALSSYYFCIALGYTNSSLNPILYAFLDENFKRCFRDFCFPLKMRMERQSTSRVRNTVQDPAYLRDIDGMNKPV
Procedure: as §1

T1 sequence (P41143 whole entry): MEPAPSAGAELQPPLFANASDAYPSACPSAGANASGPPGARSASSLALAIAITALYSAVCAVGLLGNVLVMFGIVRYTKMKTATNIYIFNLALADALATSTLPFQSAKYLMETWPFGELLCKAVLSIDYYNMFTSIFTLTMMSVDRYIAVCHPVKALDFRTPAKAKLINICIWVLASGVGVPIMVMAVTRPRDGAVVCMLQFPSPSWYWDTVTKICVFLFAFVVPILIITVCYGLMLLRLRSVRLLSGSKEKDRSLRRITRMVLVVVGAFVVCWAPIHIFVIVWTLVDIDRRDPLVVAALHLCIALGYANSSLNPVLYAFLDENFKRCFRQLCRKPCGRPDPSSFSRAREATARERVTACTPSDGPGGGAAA
T2 sequence (P35372 whole entry): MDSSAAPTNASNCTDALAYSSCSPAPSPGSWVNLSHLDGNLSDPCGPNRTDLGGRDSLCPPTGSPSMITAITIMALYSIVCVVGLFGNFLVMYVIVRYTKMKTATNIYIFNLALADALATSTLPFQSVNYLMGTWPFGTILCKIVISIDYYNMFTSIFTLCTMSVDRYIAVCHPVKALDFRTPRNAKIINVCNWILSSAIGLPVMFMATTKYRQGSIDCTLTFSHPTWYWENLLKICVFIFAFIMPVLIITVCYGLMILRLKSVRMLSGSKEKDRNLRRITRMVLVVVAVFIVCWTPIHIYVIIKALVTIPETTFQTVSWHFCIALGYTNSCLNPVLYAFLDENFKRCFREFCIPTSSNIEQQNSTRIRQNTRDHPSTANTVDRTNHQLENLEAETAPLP

With `CC[C@H](C)[C@@H](CN1CC[C@@](C)(c2cccc(O)c2)[C@@H](C)C1)NC(=O)[C@H]1Cc2ccc(O)cc2CN1C` [Compound 8j, (3R)-7-Hydroxy-N-[(1S,2S)-1-{[(3R,4R)-4-(3-hydroxyphenyl)-3,4-dimethylpiperidin-1-yl]methyl}-2-methylbutanyl]-2-methyl-1,2,3,4-tetrahydroisoquinoline-3-carboxamide] the Kb [1] was 132 ± 24 nM, the Kb [2] was 7.2 ± 1.8 nM and the “potency at μ receptors compared to 3” value [2] was “increased potency”. The Kb [3] was 0.11 ± 0.03 nM, the “change in potency on N-methylation at the tetrahydroisoquinoline nitrogen” value (from here on “change in potency on N-methylation”) [3] was “decreases in potency” and the δ/κ [3] was 1200. For the same compound, the μ/κ [3] was 66.
With `CC[C@H](C)[C@@H](CN1CC[C@@](C)(c2cccc(O)c2)[C@@H](C)C1)NC(=O)[C@H]1Cc2ccc(O)cc2CN1C` (as salt: hydrochloride) [Compound 8j, (3R)-7-Hydroxy-N-[(1S,2S)-1-{[(3R,4R)-4-(3-hydroxyphenyl)-3,4-dimethylpiperidin-1-yl]methyl}-2-methylbutanyl]-2-methyl-1,2,3,4-tetrahydroisoquinoline-3-carboxamide] the melting point was 180 °C (dec.).
In the case of `COc1cccc([C@]2(C)CCN(C[C@@H](NC(=O)[C@H]3Cc4ccc(O)cc4CN3)C(C)C)C[C@@H]2C)c1` [Compound 8d, (3R)-7-Hydroxy-N-[(1S)-1-{[(3R,4R)-4-(3-methoxyphenyl)-3,4-dimethylpiperidin-1-yl]methyl}-2-methylpropyl]-1,2,3,4-tetrahydroisoquinoline-3-carboxamide], the Kb [1] is reported as 21.2 ± 5 nM, the Kb [2] is reported as 24 ± 8 nM and the Kb [3] is reported as 0.037 ± 0.003 nM. The “decrease in potency at the κ receptor relative to 3” value ([3]; compared with 3) was “two-fold decrease in potency”, the δ/κ [3] was 573 and the μ/κ [3] was 649.
In the case of `COc1cccc([C@]2(C)CCN(C[C@@H](NC(=O)[C@@]3(C)Cc4ccc(OC)cc4CN3)C(C)C)C[C@@H]2C)c1` (as salt: hydrochloride) [Compound 8l, (3R)-7-Methoxy-N-[(1S)-1-{[(3R,4R)-4-(3-methoxyphenyl)-3,4-dimethylpiperidin-1-yl]methyl}-2-methylpropyl]-3-methyl-1,2,3,4-tetrahydroisoquinoline-3-carboxamide], the melting point is reported as > 220 °C (dec.).
With `COc1cccc([C@]2(C)CCN(C[C@@H](NC(=O)[C@H]3Cc4ccc(O)cc4CN3)C(C)C)C[C@@H]2C)c1` (as salt: hydrochloride) [Compound 8d, (3R)-7-Hydroxy-N-[(1S)-1-{[(3R,4R)-4-(3-methoxyphenyl)-3,4-dimethylpiperidin-1-yl]methyl}-2-methylpropyl]-1,2,3,4-tetrahydroisoquinoline-3-carboxamide] the melting point was > 220 °C (dec.).
In the case of `CC[C@H](C)[C@@H](CN1CC[C@@](C)(c2cccc(OC)c2)[C@@H](C)C1)NC(=O)[C@H]1Cc2ccc(O)cc2CN1` (as salt: hydrochloride) [Compound 8f, (3R)-7-Hydroxy-N-[(1S,2S)-1-{[(3R,4R)-4-(3-methoxyphenyl)-3,4-dimethylpiperidin-1-yl]methyl}-2-methylbutanyl]-1,2,3,4-tetrahydroisoquinoline-3-carboxamide], the melting point is reported as > 220 °C (dec.).
With `CC[C@H](C)[C@@H](CN1CC[C@@](C)(c2cccc(OC)c2)[C@@H](C)C1)NC(=O)[C@H]1Cc2ccc(O)cc2CN1C` [Compound 8p, (3R)-7-Hydroxy-N-[(1S,2S)-1-{[(3R,4R)-4-(3-methoxyphenyl)-3,4-dimethylpiperidin-1-yl]methyl}-2-methylbutanyl]-2-methyl-1,2,3,4-tetrahydroisoquinoline-3-carboxamide] the Kb [1] was > 10000 nM, the Kb [2] was 360 ± 120 nM and the Kb [3] was 2.03 ± 0.03 nM. The “change in potency on N-methylation” value [3] was “decreases in potency” and the μ/κ [3] was 180.
Work on `COc1cccc([C@]2(C)CCN(C[C@@H](NC(=O)[C@H]3Cc4ccc(O)cc4CN3C)C(C)C)C[C@@H]2C)c1` [Compound 8k, (3R)-7-Hydroxy-N-[(1S)-1-{[(3R,4R)-4-(3-methoxyphenyl)-3,4-dimethylpiperidin-1-yl]methyl}-2-methylpropyl]-2-methyl-1,2,3,4-tetrahydroisoquinoline-3-carboxamide] yielded a Kb [1] of 2300 ± 900 nM, a Kb [2] of 880 ± 220 nM and a Kb [3] of 4.3 ± 2.7 nM. The “change in potency on N-methylation” value [3] was “decreases in potency”.
With `COc1ccc2c(c1)CN(C)[C@@](C)(C(=O)N[C@H](CN1CC[C@@](C)(c3cccc(O)c3)[C@@H](C)C1)C(C)C)C2` [Compound 8o, (3R)-7-Methoxy-N-[(1S)-1-{[(3R,4R)-4-(3-hydroxyphenyl)-3,4-dimethylpiperidin-1-yl]methyl}-2-methylpropyl]-2,3-dimethyl-1,2,3,4-tetrahydroisoquinoline-3-carboxamide] the Kb [2] was 7 ± 1.4 nM, the Kb [3] was 2.2 ± 0.6 nM and the “change in potency on N-methylation” value [3] was “decreases in potency”.
For `COc1ccc2c(c1)CN(C)[C@@](C)(C(=O)N[C@H](CN1CC[C@@](C)(c3cccc(O)c3)[C@@H](C)C1)C(C)C)C2` (as salt: hydrochloride) [Compound 8o, (3R)-7-Methoxy-N-[(1S)-1-{[(3R,4R)-4-(3-hydroxyphenyl)-3,4-dimethylpiperidin-1-yl]methyl}-2-methylpropyl]-2,3-dimethyl-1,2,3,4-tetrahydroisoquinoline-3-carboxamide], the melting point was 199 °C (dec.).
For `COc1cccc([C@]2(C)CCN(C[C@@H](NC(=O)[C@@]3(C)Cc4ccc(OC)cc4CN3)C(C)C)C[C@@H]2C)c1` [Compound 8l, (3R)-7-Methoxy-N-[(1S)-1-{[(3R,4R)-4-(3-methoxyphenyl)-3,4-dimethylpiperidin-1-yl]methyl}-2-methylpropyl]-3-methyl-1,2,3,4-tetrahydroisoquinoline-3-carboxamide], the Kb [1] was > 10000 nM and the Kb [3] was 15.2 ± 3.7 nM.
For `CC[C@H](C)[C@@H](CN1CC[C@@](C)(c2cccc(O)c2)[C@@H](C)C1)NC(=O)[C@@]1(C)Cc2ccc(O)cc2CN1` [Compound 8i, (3R)-7-Hydroxy-N-[(1S,2S)-1-{[(3R,4R)-4-(3-hydroxyphenyl)-3,4-dimethylpiperidin-1-yl]methyl}-2-methylbutanyl]-3-methyl-1,2,3,4-tetrahydroisoquinoline-3-carboxamide], the Kb [2] was 8.7 ± 2.7 nM, the “potency at μ receptors compared to 3” value [2] was “increased potency” and the Kb [3] was 0.11 ± 0.01 nM.
`COc1cccc([C@]2(C)CCN(C[C@@H](NC(=O)[C@@]3(C)Cc4ccc(O)cc4CN3)C(C)C)C[C@@H]2C)c1` [Compound 8h, (3R)-7-Hydroxy-N-[(1S)-1-{[(3R,4R)-4-(3-methoxyphenyl)-3,4-dimethylpiperidin-1-yl]methyl}-2-methylpropyl]-3-methyl-1,2,3,4-tetrahydroisoquinoline-3-carboxamide] gave a Kb [1] of 2200 ± 900 nM and a Kb [3] of 0.26 ± 0.1 nM.
In the case of `CC[C@H](C)[C@@H](CN1CC[C@@](C)(c2cccc(OC)c2)[C@@H](C)C1)NC(=O)[C@H]1Cc2ccc(O)cc2CN1` [Compound 8f, (3R)-7-Hydroxy-N-[(1S,2S)-1-{[(3R,4R)-4-(3-methoxyphenyl)-3,4-dimethylpiperidin-1-yl]methyl}-2-methylbutanyl]-1,2,3,4-tetrahydroisoquinoline-3-carboxamide], the Kb [2] is reported as 5.1 ± 2 nM, the “potency at μ receptors compared to 3” value [2] is reported as “increased potency” and the Kb [3] is reported as 0.96 ± 0.4 nM.
With `CC(C)[C@@H](CN1CC[C@@](C)(c2cccc(O)c2)[C@@H](C)C1)NC(=O)[C@H]1Cc2ccc(O)cc2CN1C` [Compound 8c] the “δ, DPDPE Ke” value [1] was 491 ± 120 nM, the “μ, DAMGO Ke” value [2] was 210 ± 60 nM and the “change in potency on N-methylation” value [3] was “reduction in potency at all receptor subtypes”. The “κ, U69,593 Ke” value [3] was 0.16 nM and 0.16 ± 0.06 nM, the δ/κ [3] was 3070 and the μ/κ [3] was 1313.
With “(3R)-7-Methoxy-N-[(1S,2S)-1-{[(3R,4R)-4-(3-hydroxyphenyl)-3,4-dimethylpiperidin-1-yl]}-2-methylbutanyl]-3-methyl-1,2,3,4-tetrahydroisoquinoline-3-carboxamide [Compound 8m]” the “δ, DPDPE Ke” value [1] was 18.7 ± 1.5 nM, the “μ, DAMGO Ke” value [2] was 17.5 ± 3.6 nM and the “potency at μ receptors compared to 3” value [2] was “increased potency”. The δ/κ [3] was 5 and the μ/κ [3] was 5.
`CC[C@H](C)[C@@H](CN1CC[C@@](C)(c2cccc(OC)c2)[C@@H](C)C1)NC(=O)[C@@]1(C)Cc2ccc(O)cc2CN1` [Compound 8n, (3R)-7-Hydroxy-N-[(1S,2S)-1-{[(3R,4R)-4-(3-methoxyphenyl)-3,4-dimethylpiperidin-1-yl]methyl}-2-methylbutanyl)-3-methyl-1,2,3,4-tetrahydroisoquinoline-3-carboxamide] gave a Kb [1] of 2100 ± 600 nM and a Kb [3] of 0.52 ± 0.2 nM.
With `COc1ccc2c(c1)CN[C@@](C)(C(=O)N[C@H](CN1CC[C@@](C)(c3cccc(O)c3)[C@@H](C)C1)C(C)C)C2` [Compound 8g, (3R)-7-Methoxy-N-[(1S)-1-[(3R,4R)-4-(3-hydroxyphenyl)-3,4-dimethylpiperidin-1-yl]methyl}-(2-methylpropyl]-3-methyl-1,2,3,4-tetrahydroisoquinoline-3-carboxamide] the “δ, DPDPE Ke” value [1] was 36.8 ± 6.9 nM, the “μ, DAMGO Ke” value [2] was 3.8 ± 1.1 nM and the “κ, U69,593 Ke” value [3] was 0.93 ± 0.05 nM. For the same compound, the δ/κ [3] was 40 and the μ/κ [3] was 4.
In the case of `CC(C)[C@@H](CN1CC[C@@](C)(c2cccc(O)c2)[C@@H](C)C1)NC(=O)[C@@]1(C)Cc2ccc(O)cc2CN1` [Compound 8e, (3R)-7-Hydroxy-N-[(1S)-1-[(3R,4R)-4-(3-hydroxyphenyl)-3,4-dimethylpiperidin-1-yl]methyl}-(2-methylpropyl]-3-methyl-1,2,3,4-tetrahydroisoquinoline-3-carboxamide], the “δ, DPDPE Ke” value [1] is reported as 854 ± 210 nM, the “μ, DAMGO Ke” value [2] is reported as 3.6 ± 1 nM and the “κ, U69,593 Ke” value [3] is reported as 0.03 nM and 0.03 ± 0.008 nM.
